Assay results reported in PMC2866477, “Anticancer Effect and Structure-Activity Analysis of Marine Products Isolated from Metabolites of Mangrove Fungi in the South China Sea” (Marine Drugs, 2010).
Like-named read-outs stand apart in the source and are kept apart here.

Columns and labels:
MCF-7/adr cells = assay: MTT cytotoxicity assay, MCF-7/adr cells; assay type: cell-based; details: Homo sapiens, NCI/ADR-RES, 72 h treatment, doxorubicin-selected ABCB1-overexpressing MCF-7/adr cells
Protocol: (§1) The cell lines were cultured in DMEM or RPMI 1640 containing 10% fetal bovine serum at 37 °C in the presence of 5% CO2. The cell lines were the oral epidermoid carcinoma cell lines KB and its vincristine-selected ABCB1-overexpressing KBv200 [10]; the breast carcinoma cell lines MCF-7 and its doxorubicin-selected ABCB1-overexpressing MCF-7/adr; the lung carcinoma cell line A549 and normal liver cell line LO2.
(§2) The MTT assay was used to evaluate the cytotoxicity of a number of compounds previously isolated from mangrove-derived fungi as described. Briefly, 3–4 × 10^3 cells were incubated in 96-well plates and allowed to attach overnight before compounds at full range concentrations were added. The concentrations were chosen so that the highest concentration killed most of the cells and the lowest killed none of the cells. After 72 h treatment, 0.5 mg/ml MTT was added to each well for an additional 4 h. Subsequently, the supernatant was removed, and the purple MTT-formazan crystals were dissolved by DMSO. Finally, absorbance was recorded at 540 nm with 655 nm as a reference filter using a Model 550 Microplate Reader (Bio-Rad, USA). Experiments were performed at least three times. The standard chemotherapeutic agent doxorubicin was used as a positive control in MTT assay and normal liver cell line LO2 was used to show whether cytotoxic activity was tumor-specific. The concentrations required to inhibit growth by 50% (IC50) were calculated from survival curves using the Bliss method.

KBv200 cells = assay: MTT cytotoxicity assay, KBv200 cells; assay type: cell-based; details: Homo sapiens, 72 h treatment, vincristine-selected ABCB1-overexpressing KBv200 cells
Protocol: as §1, §2

A549 cells = assay: MTT cytotoxicity assay, A549 cells; assay type: cell-based; details: Homo sapiens, 72 h treatment, A549 lung carcinoma cells
Protocol: as §1, §2

normal liver LO2 cells = assay: MTT cytotoxicity assay, normal liver LO2 cells; assay type: cell-based; details: for IC50: Homo sapiens, L02, 72 h treatment
Protocol: as §1, §2

KB cells = assay: MTT cytotoxicity assay, KB cells; assay type: cell-based; details: Homo sapiens, 72 h treatment, KB oral epidermoid carcinoma cells
Protocol: as §1, §2

MCF-7 cells = assay: MTT cytotoxicity assay, MCF-7 cells; assay type: cell-based; details: Homo sapiens, MCF7, 72 h treatment, MCF-7 breast carcinoma cells
Protocol: as §1, §2

[1] = tested on: KB, KBv200, MCF-7, MCF-7/adr, and A549 cells; assay: MTT anticancer screen, cancer cell panel; assay type: cell-based, human; details: for IC50: Homo sapiens, MTT; for IC50 values in MDR cells compared with parental sensitive cells: KBv200, MCF-7/adr versus KB, MCF-7
Protocol: as §1, §2

pcDNA3.1(+) DNA = assay: DNA binding assay (agarose gel electrophoresis); details: 10, 100 or 200 μmol/L with 1 μg pcDNA3.1(+), 37 °C, 3 h; 1% agarose gel
Protocol: 10, 100 or 200 μmol/L compounds were incubated with 1 μg pcDNA3.1(+) at 37 °C for 3 h. The mixtures were then subjected to electrophoresis on a 1% agarose gel, pre-stained with 0.5 μg/ml ethidium bromide, at 60 V for 40 min. Doxorubicin (DOX) was used as a positive control.

[2] = KB, KBv200, MCF-7, MCF-7/adr, and A549 cells, read-out: IC50 values (potent cytotoxic activity)
[3] = cancer cells, cell lines not given, read-out: IC50 (cytotoxic activity)

Structure (SMILES) | IC50 (MCF-7/adr cells) [µM] | IC50 (KBv200 cells) [µM] | IC50 (A549 cells) [µM] | IC50 (normal liver LO2 cells; normal liver LO2 cells) [µM] | IC50 (KB cells) [µM] | IC50 (MCF-7 cells) [µM] | IC50 [1, 2] [µM] | IC50 values in MDR cells compared with parental sensitive cells [1] | DNA intercalation / binding to DNA (pcDNA3.1(+) DNA) | sensitivity of cancer cells compared with normal liver LO2 cells (normal liver LO2 cells; cancer cells versus LO2 cells) | cytotoxic / anticancer activity (in words) ([1]; MTT assay in vitro) | growth inhibitory activity in LO2 cells (in words) (normal liver LO2 cells; normal liver LO2 cells) | IC50 [1, 3] [µM]
Cc1ccc([N+](=O)[O-])cc1CO [Compound 2] | > 50 | > 50 | > 50 | > 50 | > 50 | > 50 | – | – | – | – | – | – | –
O=c1c2c(O)ccc(O)c2oc2c3c(cc(O)c12)OC1OCCC31 (stereo not shown) [Compound 7] | 31.6 ± 1.83 | 9.08 ± 0.65 | 16.5 ± 0.88 | 47.4 ± 2.04 | 0.03 ± 0.001 | 0.17 ± 0.01 | < 50 | much higher IC50 values | – | – | – | – | –
Cc1cccc(O)c1C(=O)O [Compound 5] | > 50 | > 50 | > 50 | > 50 | > 50 | > 50 | – | – | – | – | – | – | –
O=c1c2ccccc2oc2c3c(cc(O)c12)OC1OCCC31 (stereo not shown) [Compound 8] | 9.37 ± 0.42 | 17.2 ± 0.96 | > 50 | > 50 | 0.71 ± 0.03 | 2.53 ± 0.14 | < 50 | – | – | – | – | – | –
O=C1c2ccc(O)cc2OCC1c1ccc(O)cc1 (stereo not shown) [Compound 78] | 24.9 ± 1.15 | 9.37 ± 0.61 | 14.9 ± 0.64 | 33.6 ± 2.06 | 8.63 ± 0.57 | 19.8 ± 0.89 | < 50 | – | none of the compounds investigated here showed binding to DNA | more sensitive | exhibited a cytotoxicity targeted to cancer cells | – | –
CCOC(=O)COc1cc(C)cc2c1C(=O)c1c(O)cccc1C2=O [Compound 11] | 35.3 ± 2.77 | 18.9 ± 1.2 | 21.3 ± 1.6 | 28.9 ± 1.46 | 5.89 ± 0.37 | 13.2 ± 0.84 | < 50 | – | none of the compounds investigated here showed binding to DNA | – | – | exhibited growth inhibitory activity in LO2 cells | –
COc1cc(OC)c2c(c1)C(=O)c1cc3c(c(O)c1C2=O)C1CCOC1O3 (stereo not shown) [Compound 17] | > 50 | > 50 | > 50 | > 50 | > 50 | > 50 | – | – | – | – | – | – | –
COc1cc(O)c2c(c1O)C(=O)C1CC(C)(O)C(O)CC1C2O (stereo not shown) [Compound 23] | > 50 | > 50 | > 50 | > 50 | > 50 | > 50 | – | – | – | – | – | – | –
Cc1c(CCl)cc([N+](=O)[O-])cc1CCl [Compound 3] | > 50 | > 50 | > 50 | > 50 | > 50 | > 50 | – | – | – | – | – | – | –
Cc1ccc2c(c1)C(=O)c1ccc(-c3ccc4c(c3)C(=O)c3cc(C)cc(O)c3C4=O)c(O)c1C2=O [Compound 19] | > 50 | > 50 | > 50 | > 50 | > 50 | > 50 | – | – | – | – | – | – | –
C=C/C=C/COc1c(-c2ccc3c(c2OC/C=C/C=C)C(=O)C2=C(O)CC(C)C(O)C2(C(=O)OC)O3)ccc2c1C(=O)C1=C(O)CC(C)C(O)C1(C(=O)OC)O2 (stereo not shown) [Compound 10] | > 50 | > 50 | > 50 | > 50 | > 50 | > 50 | – | – | – | – | – | – | –
COc1cc(O)c2c(c1O)C(O)C1CC(C)(O)C(O)C(O)C1C2=O (stereo not shown) [Compound 20] | > 50 | > 50 | > 50 | > 50 | > 50 | > 50 | – | – | – | – | – | – | –
CC(=O)/C=C/C=C/C=C/C(=O)CC(=O)O [Compound 84] | > 50 | > 50 | > 50 | > 50 | > 50 | > 50 | – | – | – | – | – | – | –
COc1cc(O)c2c(c1O)C(O)C1CC3(C)OC3CC1C2=O (stereo not shown) [Compound 22] | > 50 | > 50 | > 50 | > 50 | > 50 | > 50 | – | – | – | – | – | – | –
COc1c2c(cc3oc4cccc(O)c4c(=O)c13)C1C=COC1O2 (stereo not shown) [Compound 9] | 31.6 ± 1.36 | 48 ± 3.41 | > 50 | > 50 | 0.94 ± 0.01 | 1.43 ± 0.09 | < 50 | much higher IC50 values | – | – | – | – | –
C#CCOc1cc(C)cc2c1C(=O)c1c(O)cccc1C2=O [Compound 14] | > 50 | > 50 | 23.5 ± 1.32 | 37.5 ± 1.64 | 11.9 ± 0.69 | 35.2 ± 1.87 | < 50 | much higher IC50 values | none of the compounds investigated here showed binding to DNA | – | – | – | –
CCCCC/C=C\CC(O)/C=C/C=C\C/C=C\CCCC(=O)OC (stereo not shown) [Compound 82] | > 50 | > 50 | > 50 | > 50 | > 50 | > 50 | – | – | – | – | – | – | –
Cc1cc(OCc2ccccc2)c2c(c1)C(=O)c1cccc(O)c1C2=O [Compound 15] | > 50 | > 50 | > 50 | > 50 | > 50 | > 50 | – | – | – | – | – | – | –
COc1cccc2c1C(=O)c1c(O)c3c(c(O)c1C2=O)C[C@@](O)(C(=O)CO)C[C@@H]3O[C@H]1C[C@H](N)[C@H](O)[C@H](C)O1 [Doxorubicin, reference compound] | 22.3 ± 1.56 | 3.21 ± 0.12 | 1.67 ± 0.09 | 0.11 ± 0.01 | 0.05 ± 0.003 | 0.39 ± 0.02 | – | much higher IC50 values | effectively intercalated into DNA in a concentration-dependent manner | – | – | – | –
COc1cc(O)c2c(c1O)C(O)C1CC(C)(O)C(O)CC1C2=O (stereo not shown) [Compound 21] | > 50 | > 50 | > 50 | > 50 | > 50 | > 50 | – | – | – | – | – | – | –
CC1OC(O[C@@H]2C(=O)c3c(O)cccc3OC2c2ccc(O)cc2)C(O)C(O)C1O (stereo partly shown) [Compound 79] | > 50 | > 50 | > 50 | > 50 | > 50 | > 50 | – | – | – | – | – | – | > 50
COc1cc(O)c2c(c1O)C(=O)C1CC(C)(O)C(O)C(O)C1C2O (stereo not shown) [Compound 24] | > 50 | > 50 | > 50 | > 50 | > 50 | > 50 | – | – | – | – | – | – | –
COC(=O)/C=C/C=C/C=C/C=C(C)/C=C/C=C(\C)C(=O)O [Compound 85] | > 50 | > 50 | > 50 | > 50 | > 50 | > 50 | – | – | – | – | – | – | –
COc1cc(O)c2c(c1O)C(=O)C1CC3(C)OC3CC1C2O (stereo not shown) [Compound 25] | > 50 | > 50 | > 50 | > 50 | > 50 | > 50 | – | – | – | – | – | – | –
CC1OC(O[C@H]2C(=O)c3c(O)cccc3OC2c2ccc(O)cc2)C(O)C(O)C1O (stereo partly shown) [Compound 80] | > 50 | > 50 | > 50 | > 50 | > 50 | > 50 | – | – | – | – | – | – | > 50
C/C=C/C(=O)c1cc(O)c(O)cc1O [Compound 6] | > 50 | > 50 | > 50 | > 50 | > 50 | > 50 | – | – | – | – | – | – | –
CCOC(=O)COc1cccc2c1C(=O)c1c(OCC(=O)OCC)cc(C)cc1C2=O [Compound 12] | > 50 | > 50 | > 50 | > 50 | > 50 | > 50 | – | – | – | – | – | – | –
O=C1c2cccc(OCc3ccccc3)c2C(=O)c2c(OCc3ccccc3)cccc21 [Compound 16] | > 50 | > 50 | > 50 | > 50 | > 50 | > 50 | – | – | – | – | – | – | –
